# Measurements reported in PubChem BioAssay AID1645866 (Buhrlage Lab, Dana-Farber Cancer Institute and Novartis …, 2021).
# pIC50: −log10 of the molar value. Calls of active or inactive are those of the source.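 The calls were made as follows: active = in confirmatory dose-response testing, peak deubiquitinase inhibition of 30% or more; inactive = the rest.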
# Molecular target: Ubiquitin carboxyl-terminal hydrolase 28 (Homo sapiens) (UniProt Q96RU2)
# Experiment: Ubiquitin-specific peptidase 28 DUB inhibitors, biochemical concentration-dependence assay, validation of primary screening hits (AID 1645866)
# Settings: purified USP28, ubiquitin-rhodamine fluorescence, 30 min
# Chain of Ubiquitin carboxyl-terminal hydrolase 28 (Homo sapiens) (Q96RU2 whole entry, looked up): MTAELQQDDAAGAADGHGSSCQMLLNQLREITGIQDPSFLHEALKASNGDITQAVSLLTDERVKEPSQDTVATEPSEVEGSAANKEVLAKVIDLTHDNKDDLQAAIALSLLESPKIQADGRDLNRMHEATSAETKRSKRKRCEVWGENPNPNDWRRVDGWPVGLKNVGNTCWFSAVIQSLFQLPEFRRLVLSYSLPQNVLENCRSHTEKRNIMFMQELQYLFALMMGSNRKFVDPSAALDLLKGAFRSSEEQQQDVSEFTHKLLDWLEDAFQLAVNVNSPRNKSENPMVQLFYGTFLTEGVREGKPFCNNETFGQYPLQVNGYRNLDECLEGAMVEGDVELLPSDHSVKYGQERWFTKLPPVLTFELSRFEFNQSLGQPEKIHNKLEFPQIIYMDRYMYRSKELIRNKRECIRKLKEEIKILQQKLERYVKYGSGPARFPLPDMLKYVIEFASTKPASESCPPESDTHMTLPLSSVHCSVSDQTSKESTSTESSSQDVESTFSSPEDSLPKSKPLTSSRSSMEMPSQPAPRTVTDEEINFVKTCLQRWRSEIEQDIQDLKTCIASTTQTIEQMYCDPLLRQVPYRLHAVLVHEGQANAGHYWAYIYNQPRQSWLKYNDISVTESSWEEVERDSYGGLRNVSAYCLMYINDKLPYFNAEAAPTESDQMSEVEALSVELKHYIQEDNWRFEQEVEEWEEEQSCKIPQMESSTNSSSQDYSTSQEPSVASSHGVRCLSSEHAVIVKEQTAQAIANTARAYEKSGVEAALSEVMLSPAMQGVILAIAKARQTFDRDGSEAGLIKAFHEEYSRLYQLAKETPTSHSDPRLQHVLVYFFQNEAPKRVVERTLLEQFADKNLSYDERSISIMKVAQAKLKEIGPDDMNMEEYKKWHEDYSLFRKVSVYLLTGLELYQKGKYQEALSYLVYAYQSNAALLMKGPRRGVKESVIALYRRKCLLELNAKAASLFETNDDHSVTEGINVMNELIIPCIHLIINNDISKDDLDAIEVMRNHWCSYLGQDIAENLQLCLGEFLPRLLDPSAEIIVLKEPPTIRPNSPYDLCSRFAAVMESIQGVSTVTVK
pIC50,IC50,SMILES
5.39,–,Cc1c(C(=O)Nc2ccc(-c3nnc4n3CCCCC4)cc2)oc2c1ccc1ccccc12
4.69,–,CC(C)(C)c1ccc(C(=O)Nc2ccc(Oc3cccnc3)nc2)cc1
5.47,–,CC(=O)Nc1ccc(O)c(-c2nc3cc(C)ccc3o2)c1
4.84,–,CCc1ccc(-n2c(=O)c3ccccc3n(CC(=O)NCCC3=CCCCC3)c2=O)cc1
4.32,–,CNc1nc2c(c(=O)n1Cc1ccccc1)CN(C(=O)c1ccc(CN)cc1)CC2
5.45,–,Cc1ccc(NC(=O)Cc2nnc3c(-c4nc(C5CC5)no4)cccn23)cc1
5.23,–,Cc1ccccc1NC(=O)c1nc(-c2cn(Cc3ccc(F)cc3)nn2)no1
–,> 50 µM (inactive),COc1ccccc1OCC(=O)Nc1ccc2c(c1)CCC(=O)N2Cc1ccccc1
–,> 50 µM (inactive),COc1cnc(CSc2ncccn2)cc1OCC(=O)Nc1cc(C)ccc1C
4.55,–,COc1ccc(OC)c(C2CC(=O)Nc3n[nH]c(-c4ccccc4)c32)c1 (stereo unspecified)
–,> 50 µM (inactive),Cc1ccc(Cl)cc1NC(=O)COC(=O)c1ccc2ccccc2n1
5.70,–,CCOc1ccccc1NC(=O)Cn1c(=O)n(CCCC(=O)NCc2ccc(C)cc2)c(=O)c2sccc21
–,> 50 µM (inactive),CCOc1ccc(-n2c(C)cc(/C=C(\C#N)c3nc4ccccc4[nH]3)c2C)cc1
–,> 50 µM (inactive),COc1ccc(CCNC(=O)c2c(N)n(-c3cccc(Cl)c3)c3nc4ccccc4nc23)cc1
4.43,–,COc1ccccc1-c1nc(Cn2nnc(C(=O)Nc3cc(C)cc(C)c3)c2N)c(C)o1
–,> 50 µM (inactive),Cc1ccc(CNC(=O)c2cnc3ccccc3n2)cc1
4.66,–,COc1ccc(NC(=O)Nc2cccc(-c3nnc(-c4ccccc4)o3)c2)cc1OC
4.65,–,Cc1cc(Nc2ccc(C(=O)NCc3ccco3)cc2)n2nc(-c3cccnc3)nc2n1
6.12,–,CCOC(=O)c1cccc(NC(=O)Nc2cccn3nc(C)nc23)c1
5.40,–,CCOc1ccc(NC(=O)Cn2c(=O)n(CCC(=O)NCc3ccccc3OC)c(=O)c3ccccc32)cc1
4.73,–,CC(=O)c1sc(NC(=O)c2ccccc2-c2ccc(C(F)(F)F)cc2)nc1C
4.55,–,O=C(Cn1c(=O)nc(-c2ccccc2)c2ccccc21)NCc1ccc2c(c1)OCO2
5.22,–,N#Cc1ccccc1OCc1csc(-c2ccccc2)n1

pIC50,IC50,SMILES
5.14,–,O=c1c2c(ccn1Cc1cc(F)ccc1F)ccn2Cc1cccnc1
–,> 50 µM (inactive),CCOc1ccccc1-c1nc(-c2nnn(Cc3ccccc3)c2C)no1
5.76,–,COc1cc(-c2nc(C(N)=O)c3[nH]c(=O)n(-c4ccc(C)cc4)c3n2)cc(OC)c1OC
–,> 50 µM (inactive),COc1cc2c(cc1OC)C(COc1ccccc1OC)N(C(=O)c1ccc3ccccc3c1)CC2 (stereo unspecified)
–,> 50 µM (inactive),COc1ccc(-c2nnc(SCc3ccccc3C#N)o2)c(OC)c1
4.58,–,Cc1cc(NC(=O)COc2ccc3oc4ccccc4c3c2)no1
4.68,–,COc1ccc(CCNC(=O)CCCCn2c(=O)c3ccccc3n(Cc3cccc(Cl)c3)c2=O)cc1OC
4.80,–,Cc1nn(-c2ccccc2)c(C)c1C(=O)OCC(=O)Nc1cccc(C#N)c1
4.55,–,COc1ccc(NC(=O)CC(=O)c2ccc([N+](=O)[O-])cc2)cc1S(=O)(=O)Nc1ccc(Br)cc1
4.78,–,CCc1cccc(CC)c1NC(=O)COC(=O)c1cc2cccc(OC)c2oc1=O
–,> 50 µM (inactive),COc1ccc(-c2nc(C)c(C(=O)NCc3ccc(S(N)(=O)=O)cc3)s2)cc1
–,> 50 µM (inactive),CCOC(=O)Nc1ccc(N2CCn3c(nc4ccccc43)C2)cc1OC
4.43,–,COc1ccccc1CC(=O)Nc1nc2ccccc2[nH]1
4.39,–,COc1ccccc1-c1nc2c3c(ncn2n1)Oc1c(c(C)nn1-c1ccccc1)C3c1cccnc1 (stereo unspecified)
–,> 50 µM (inactive),CCC(=O)OCc1cnc(C)c2oc(=O)c(-c3nc(-c4ccccc4)no3)cc12
4.70,–,Cc1cc(C)n(-c2ccc(C(=O)NCc3ccc(F)cc3)cn2)n1
6.52,–,Cc1ccc(-n2c(-c3ccccc3)cn3c4c(=O)[nH]c(=O)n(C)c4nc23)cc1Cl
5.17,–,COc1cccc(Cn2nc3n(CC(C)C)c(=O)c4ccc(C(=O)NCC(C)C)cc4n3c2=O)c1
–,> 50 µM (inactive),COCCNC(=O)c1ccn(-c2ccc3ccc(-c4cnn(C)c4)cn23)n1
–,> 50 µM (inactive),Cc1nnc(-c2nnc(NCc3ccc(Cl)cc3)c3ccccc23)o1
4.76,–,CCS(=O)(=O)c1ccccc1C(=O)Nc1ccc2sc(C)nc2c1
–,> 50 µM (inactive),COc1ccc(CCNc2c(-c3ccccc3O)nc3cnccn23)cc1OC
4.61,–,COc1ccccc1NC(=O)CNC(=O)c1nn(-c2ccc(OC)c(OC)c2)c(=O)c2ccccc12

# Further lines, the compound ahead of its results:
SMILES,pIC50,IC50
O=C(NCCc1ccco1)c1ccc(N2CCOc3ccccc32)s1,4.65,–
Cc1ccccc1Cn1cc(SCC(=O)Nc2ccc3c(c2)OCCO3)c2ccccc21,5.32,–
C=C1CCC2[C@](C)(CCC[C@]2(C)C(=O)OC)[C@H]1CCc1ccoc1/C=C/C(=O)O (stereo partly specified),4.54,–
Cc1cc(=O)oc2cc(OCC(=O)Nc3cc(Cl)ccc3N3CCOCC3)ccc12,4.39,–
O=C(COC(=O)c1cc2c(s1)CCC2)c1ccc2[nH]c(=O)[nH]c2c1,5.19,–
N#Cc1ccc(NC(=O)c2ccc(S(=O)(=O)N3CCCCC3)cc2)cc1,4.56,–
CC1CCCCN1CCCNC(=O)c1ccc(N2CCc3ccccc32)s1 (stereo unspecified),4.97,–
CCOc1ccc2c(c1)c(=O)c(C(=O)c1ccccc1)cn2CC(=O)Nc1ccc2c(c1)OCCO2,4.62,–
O=c1ncn(Cc2ccc3c(c2)OCO3)cc1-c1ncc(C(F)(F)F)cc1Cl,–,> 50 µM (inactive)
COC(=O)c1cc2c(ccn2C)n1CC(=O)NC1CC1,–,> 50 µM (inactive)
O=C(C(c1ccccc1)c1ccccc1)N1CCC(c2nc3c(nnn3Cc3c(F)cccc3Cl)c(=O)[nH]2)CC1,5.16,–
Cc1ccc(C)c(CSC2=NCCN2C(=O)c2ccco2)c1,5.39,–
CCN(C(=O)c1cc2c(s1)-c1ccccc1OC2)c1ccccc1F,4.71,–
CC1CCc2c(sc3ncnc(OCc4cccc([N+](=O)[O-])c4)c23)C1 (stereo unspecified),> 7.30,–
COc1ccc(NC(=O)C2CCCN(S(=O)(=O)N3CCCCCC3)C2)cc1 (stereo unspecified),4.66,–
COCCN(C1CCN(CCc2ccc(Cl)cc2)CC1)S(=O)(=O)c1cccc2cccnc12,–,> 50 µM (inactive)
Cc1ccccc1Cn1ccc(NC(=O)c2noc(C)c2[N+](=O)[O-])n1,5.16,–
CC1CCc2sc(NC(=O)c3ccccc3Oc3ccccc3)c(C(N)=O)c2C1 (stereo unspecified),4.82,–
CC1=CC(=O)C(C2=C(O)C(=O)C(C)=CC2=O)=C(O)C1=O,4.69,–
CN(C)Cc1ccc(C(=O)Nc2ccc(-c3nccs3)cc2)cc1,5.96,–
O=C(Cn1cnc2ccccc21)Nc1ccc2c(c1)CCC2,4.54,–
CS(=O)(=O)N1CCCc2cc(C(=O)Nc3ccc4c(c3)OCO4)ccc21,5.34,–
O=C(CCCc1c[nH]c2ccccc12)Nc1ccc2c(c1)OCCO2,5.35,–
CCc1cccc2c(C(=O)COc3ccc(C#N)cc3)c[nH]c12,4.82,–
C/C=C(\Cl)C1=CC(=O)[C@]23C[C@H]2[C@@]2(C)CO[C@@]1(O)[C@@]3(O)O2,–,> 50 µM (inactive)
CC1CCN(S(=O)(=O)c2ccc3[nH]cc(C(=O)NCc4ccco4)c(=O)c3c2)CC1,–,> 50 µM (inactive)
O=c1[nH]cccc1NS(=O)(=O)c1ccc(F)cc1,–,> 50 µM (inactive)
O=C(Cc1cccnc1)Nc1ccc(N2CCN(C3CCCCC3)C2=O)nc1,–,> 50 µM (inactive)

SMILES,pIC50,IC50
O=C(c1nnn(Cc2ccc(Cl)cc2)c1-n1cccc1)N1CCCC1,5.22,–
Cc1ccc(Nc2nc(C(=O)NCc3ccc4c(c3)OCO4)cc3occc23)cc1Cl,4.72,–
Cc1ccc(CNC(=O)c2ccc(N3C(=O)[C@@H]4Cc5ccccc5CN4C3=O)cc2)cc1,4.53,–
COc1ccc(NC(=O)CN2CCN(c3ccc(C(C)=O)cc3)CC2)cc1S(=O)(=O)N1CCCCC1,4.39,–
Nc1c(C(=O)Nc2ccc3c(c2)OCO3)sc2nc(-c3cccnc3)ccc12,5.70,–
CO/C=C/C(=O)c1cc2cnc3c(=N)cc(NC(C)=O)c([nH]1)c23,–,> 50 µM (inactive)
O=C(Cc1noc2ccccc12)N1CCN(c2ccc([N+](=O)[O-])cc2)CC1,–,> 50 µM (inactive)
Cn1cc(-c2noc(Cc3cccc(C(F)(F)F)c3)n2)ccc1=O,4.91,–
Clc1cccc(N2CCN(c3ncnc4nc[nH]c34)CC2)c1,4.40,–
Cc1oc2ccc(NS(=O)(=O)c3ccc(F)cc3)cc2c1C(=O)OCc1ccccc1,5.04,–
N#Cc1c(Cl)cccc1Oc1ccc(S(=O)(=O)N2CCC(O)CC2)cc1,4.71,–
COc1cccc2c1NC(=O)C21CCN(C(=O)Nc2cccc3ccccc23)CC1,–,> 50 µM (inactive)
CCCCN1CC(C(=O)Nc2ccc(C(=O)Nc3ccc(Cl)cc3)cc2)CC1=O (stereo unspecified),4.98,–
COc1cccc(N2CCN(C(=O)CCNS(=O)(=O)c3ccc4c(c3)CCC(=O)N4)CC2)c1,–,> 50 µM (inactive)
Cc1nn(-c2cccc(F)c2)c2c1C(C(=O)c1ccc(Cl)s1)CC(=O)N2 (stereo unspecified),4.31,–
O=C(O)COc1ccccc1/C=C1\CCc2c1nc1ccccc1c2C(=O)O,–,> 50 µM (inactive)
Cc1cccc(Cl)c1NC(=O)Nc1ccc(NC(=O)c2ccccc2O)cc1,4.57,–
Cc1cc(C#N)c2c(C)ccc(C(C)C)cc1-2,4.67,–
O=[N+]([O-])c1cccc(CSc2nnc(/C=C/c3ccccc3)o2)c1,–,> 50 µM (inactive)
CCC(C)c1ccc(-c2csc(Cn3c(CN4CCN(C)CC4)nc4ccccc4c3=O)n2)cc1 (stereo unspecified),4.81,–
CCOc1ccc(NC(=O)Cn2c(=O)n(CCC(=O)NCc3ccco3)c(=O)c3ccccc32)cc1,5.35,–
Cn1c(=O)cc(SCC(=O)NC2CCN(Cc3ccccc3)CC2)c2ccc(Cl)cc21,4.50,–
C[C@@]12c3ccc4c(c3C(=O)c3occ(c31)C(O)C[C@H]2O)CCC4=O (stereo partly specified),–,> 50 µM (inactive)
CC(=O)N1CCc2cc(S(=O)(=O)NCCC(=O)Nc3cccc(C)c3C)ccc21,4.47,–
Cc1cc(C(=O)N2CCN(C3CCN(Cc4ccc(Cl)o4)CC3)C(=O)C2)c(C)o1,–,> 50 µM (inactive)
O=C(CNC(=O)c1cc2ccccc2o1)Nc1ccc2c(c1)OCCO2,4.74,–
Cn1cc2cccc(NC(=O)c3ccc(F)cc3)c2n1,–,> 50 µM (inactive)
